Measurements: patent US20050215531A1, “Use of edg receptor binding agents in cancer” (priority 2002, published 2005)
Structures can show the parent of a compound that is named as a salt.

Legend:
[1] = tested on: human MDA-MB-435 breast tumors; experiment: Combination with a VEGF-R protein tyrosin kinase inhibitor, MDA-MB-435 breast tumors in nude mice; format: in vivo; conditions: 2 weeks, Compound C HCl 2.5 mg/kg i.v. 5×/week, phthalazine succinate 100 mg/kg p.o. 5×/week, or both
Description: (§1) Antitumor activity is expressed as T/C% (mean increase in tumor volumes of treated animals divided by the mean increase of tumor volumes of control animals multiplied by 100).
Nude mice transplanted with human MDA-MB-435 breast tumors are treated for 2 weeks with a VEGF-R protein tyrosin kinase inhibitor, e.g. 1-(4-chloroanilino)-4-(4-pyridylmethyl)phthalazine succinate, at a dose of 100 mg/kg p.o. 5×/week, a S1P receptor agonist, e.g. Compound C (hydrochloride salt), at a dose of 2.5 mg/kg i.v. 5×/week, or a combination of both. Antitumor is expressed as T/C% as indicated above.

[2] = tested on: human A375 melanoma cells; experiment: Combination with a VEGF-R protein tyrosin kinase inhibitor, A375 melanoma in nude mice; format: in vivo; conditions: treated in a similar way (same doses) alone or combined
[3] = tested on: human A375 melanoma cells; experiment: In vivo antitumor activity, A375 melanoma transplanted into BALB/c-nu/nu mice
Excerpt: as §1
Aliquots of cancer cells (1×10^7), e.g. human A375 melanoma cells, are transplanted into BALB/c-nu/nu mice. When the tumors have reached ca. 10×10 mm in size, the animals are assigned randomly to four subgroups and the treatment with a compound of formula I is initiated. Animals are sacrificed after 2 week treatment, at which times tumors and tissues are harvested and prepared for morphological and molecular analysis. The size of the tumors is determined with a caliper.

HUVEC [4] = experiment: S1P-mediated HUVEC tube formation assay; format: cell-based, human; conditions: treatment alone; branching points in 3 independent fields at 4× magnification
Description: For the tube formation assay, HUVEC from passage 2-8 are used and are never greater than 70% confluent before harvesting. Cells are prepared for the assay by washing with Herpes Balanced Saline Solution (HBSS from Clonetics) and then trypsinizing with Trypsin/EDTA (0.25 mg/ml, from Clonetics). After approximately 90% of the cells have lifted off the plate, an equal volume of Trypsin Neutralizing Solution (TNS from Clonetics) is added and the cells are collected into a conical tube containing at least 10 ml of EBM-2 (Clonetics)+0.1% BSA (Sigma) media Cells are centrifuged at 1000 rpm for 5 minutes and the supematant is removed and replaced with 5 ml of fresh EBM-2+0.1% BSA. Cells are counted using a hemacytometer and the volume of the cell suspension is adjusted to achieve a concentration of 500,000 cells/ml. Conical tubes are prepared with test compounds at 100 nM, and pertussin toxin (PTx) at 10 ng/ml in each, then 1 ml of the cell suspension is added to each tube. Tubes are then incubated for ½ hour at 37° C., 5% CO2. The migration assay is performed using Fluoro-Blok 24-Multiwell insert Plates coated with fibronectin (8 μm pore size, Falcon #351147) instead of the individual inserts in a 24-well plate. Cells and test compounds are prepared and pre-incubated as described above, then 100 μl is added to each approriate well in the Insert Plate. 300 μl of the EBM-2+2% charcoastripped media without S1P is added to the bottoms of the wells marked for no stimulation (−), and 300 μl of the media containing S1P (500 nM) is added to the bottoms of the wells marked for stimulation (+). The plate is then incubated for 4 hours at 37° C., 5% CO2. […]
After incubation, the plate is read on a Cytofluor II at an excitation of 485 nm and emission of 530 nm. The Fluoro-Blok coating in the inserts allows only the cells that have migrated to the bottom to be counted. […]
Tube formation is quantitated by counting the number of branching points (two independent cords connecting) in 3 independent fields at 4× magnification.

tissue factor = experiment: Clotting assay, tissue factor activity on HUVEC; format: cell-based, human; conditions: compound alone or in combinations, 0.5-2 μM, 4 hours
Description: (§2) Human umbilical vein endothelial cells (HUVEC) are cultured at 37° C. and 5% CO2 in medium M199 supplemented with 20% SCS (HyClone, Logan, Utah), 1 U/ml heparin, 50 μg/ml ECGS, 2 mM glutamine, 100 U/ml penicillin and 0.1 mg/ml streptomycin. Cells are used for experiments up to passage number 5. Short-starved HUVEC are obtained by starving with 1% SCS-containing M199 for 5 h. Recombinant human VEGF165 is obtained from PromoCell (Heidelberg, Germany). Phospho-specific ERK½, p3B kinase polyclonal antibodies, nonphospho ERK½ antibodies and LumiGLO chemiluminescent reagent are from New England BioLabs (Beverly, Mass.), polyclonal IKB antibodies from Santa Cruz Biotechnology (Santa Cruz, Calif.). Peroxidase-conjugated donkey anti-rabbit immunoglobulin G (IgG) and sheep anti-mouse IgG are purchased from Amersham LIFE SCIENCE (Amersham Place, England). lmmobilon-P transfer membranes are products of Millipore (Bedford, Mass.). S is obtained from Sigma Chemical Co.; S1P is from Biomol. Compound A-phosphate stock solution is prepared by the following protocol. Compound A-phosphate is dissolved in methanol tracing with concentrated HCl (0.5 mg Compound A-phosphate in 500 μl of methanol plus 2 μl of HCl). Solvent from the resulting solution is evaporated under vacuum and the residue obtained is redissolved (variant 1) in 0.1% of defatted BSA solution in sterile deionized water (500 μl) or (variant 2) in 0.5% Triton X-100 in deionized water. The resulting stock solutions (2.5 mM) are sonicated and stored at 4° C.
Cells are seeded in 6-well plates at 80-90% confluency and grown overnight. Cells are scraped from the plates and analyzed for tissue factor activity according to the method as described in Clauss, M., J. Biol. Chem. 271,17629-17634 (1996), Mechtcheriakova, D., Blood 93,3811-3823 (1999). Briefly, after induction for 4 hours with VEGF (1.5 nM), TNF-α (100 U/ml), S (0.5-2 μM), S1P (0.5-2 μM), Compound A (0.5-2 μM), and Compound A-phosphate (0.5-2 μM), cells are washed twice and then scraped in 1 ml clotting buffer (12 mM sodium acetate, 7 mM diethylbarbitate and 130 mM sodium chloride; pH 7.4). 50 μl of resuspended cells are mixed with 50 μl of citrated plasma, and clotting times are determined after recalcfication with 50 μl of 20 mM CaCl2 solution at 37° C. TF-equivalents are determined by using a standard curve obtained from rabbit brain thromboplastin.
An important characteristic feature of both classical inflammatory stimulus TNF-α and the main angiogenic growth factor VEGF on endothellal cells is their potency to upregulate tissue factor. Compound A, Compound A-phosphate, S or S1P are tested whether they also do induce tissue factor on HUVEC. […] The data obtained together indicate that Compound A, Compound A-phosphate, S and S1P mechanistically work distinctly to anglogenic VEGF and inflammatory TNF-α.

HUVEC [5] = experiment: In vitro angiogenesis (tube formation) assay on Matrigel; format: cell-based, human; conditions: for effect on VEGF-triggered tube formation: high concentrations, 2-5 μM
Description: as §2
Morphogenesis of endothelial cells into capillary-like structures on Growth Factor Reduced Matrigel Matrix (BD Bioscience) is performed according to the manufacture procedure. Briefly, HUVEC are trypsinized, resuspended in serum-free Ml 99 medium containing soybean trypsin inhibitor (1 mg/ml, Sigma). After centrifugation cells are resuspended in serum-free medium at a density 0.5×10^5 cells/ml, and cell suspension is seeded in 96-well cell culture plates (Costar, Corning Incorporated) precoated with 50 μl of Matrigel in the absence or presence of various stimuli: VEGF at 1.5 nM, S1P at 0.1-2 μM, S at 0.5-2 μM, Compound A at 0.5-2 μM, and Compound A-phosphate at 0.1-2 μM. Eight hours later, cells on Matrigel are fixed with 3% formaldehyde in PBS and kept at 4° C. Results are quantitated from images made with a Nikon Diaphot microscope equipped with a cooled CCD camera (Kappa GmbH, Gleichen, Germany) by direct counting of branching points on two microscopic fields from each well done in duplicates.
The effect of Compound A and Compound A-phosphate on morphogenic differentiation of endothelial cells is determined using an in vitro angiogenesis assay on Matrigel. Endothelial cell morphogenesis is a complex process that requires cell-extracellular matrix interactions, followed by matrix remodelling, stimulated migration, cell-cell interactions, and perivascular proteolysis. […] This may be interpreted as a possible involvement of EDG-1 (S1P1) receptor-mediated signaling events in Compound A-phosphate-stimulated bioresponses (see e.g. FIG. 3). […] Importantly, high concentrations of S and Compound A (2-5 μM) inhibited VEGF-triggered tube formation.

ERK½ MAP kinases = experiment: Western blot, activation of ERK½ MAP kinases in HUVEC; format: cell-based, human; conditions: endothelial cells, 5 minute to 60 minute treatment
Description: as §2
After various treatments, the cells are washed twice with cold PBS, lysed in 100 μl of Laemmli buffer, scraped and heated for 5 min at 95° C. Total cell lysates are separated by SDS-PAGE and transferred to Immobilon-P membrane. The membrane is blocked for 30 minutes with PBS containing 0.1% Tween-20 and 3% skim milk and incubated for 1 hour at RT with a primary antibody diluted in blocking buffer. The membrane obtained is washed three times for 5 minutes with PBS containing 0.1% Tween-20 and incubated with peroxidase-conjugated secondary antibody for 1 hour at RT. After a washing step, the membrane is incubated for 1 minute with ECL reagent and exposed to film as required. For reprobing with another antibody, the membrane is washed twice in PBS, stripped for 30 min at 55° C. with stripping buffer (62.5 mM Tris-HCL, pH 6.8, 2% SDS, 100 mM 2-mercaptoethanol) and washed three times for 5 minutes with PBS at RT. The membrane is stored wet wrapped in SaranWrap at 4° C. after each immunodetection.
Signal transduction via MAP idnases plays a key role in a variety of endothelial cell functions. Treatment of HUVEC with Compound A-phosphate at 0.5 μM may result in transient activation of ERK½ with a peak of phosphorylation/activation at 10 minutes and returning to baseline by 20 minutes (see e.g. FIG. 5). No activation of p38 kinase and JNK½ by Compound A-phosphate is detectable in HUVEC. […] To estimate the possible role of inflammatory/NFκB-dependent program in Compound A-phosphatestimulated bioresponses of endothelial cells, the membranes are reprobed with anti-IκB antibodies. IκB levels are not affected by Compound A-phosphate treatment.

Which results are given for `Clc1ccc(Nc2nnc(Cc3ccncc3)c3ccccc23)cc1.O=C(O)CCC(=O)O` [1-(4-chloroanilino)-4-(4-pyridylmethyl)phthalazine succinate, reference compound]?
T/C% [1]: 91%; T/C% [2]: 44%

`CCCCCCCOc1ccc(CCC(C)(N)CO)cc1` (stereo not shown) [Compound C, 2-amino-4-(4heptyloxyphenyl)-2-methyl-butanol] was tested. Which “tumor growth vs saline control” value ([3]; hydrochloride salt form, 0.5 to 5 mg/kg, 2 week treatment) did it give?
The value was “slows tumor growth”.

What does the source list for `CCCCCCCOc1ccc(CCC(C)(N)CO)cc1` (stereo not shown) [Compound C—HCl, 2-amino-4-(4heptyloxyphenyl)-2-methyl-butanol]?
final T/C value ([3]; 2.5 mg/kg 5×/week): 30%; T/C% [1]: 66%; T/C% [2]: 35%

Which results are given for `CCCCCCCCCCCCC/C=C/[C@@H](O)[C@@H](N)COP(=O)(O)O` [Compound S1P, sphingosine-1-phosphate, reference compound]?
Branching Points (HUVEC [4]): 42 ± 13; tissue factor activity (tissue factor): none of these compounds alone or in combinations may elevate tissue factor activity

Which results are given for `CCCCCCCCCCCCC/C=C/[C@@H](O)[C@@H](N)CO` [S, sphingosine, reference compound]?
effect on the VEGF-induced tube formation (HUVEC [5]; 1 μM): without having an inhibitory effect; effect on the ability of S1P and Compound A-phosphate to induce capillary-like structures (HUVEC [5]; 1 μM): attenuates; potency to induce capillary-like structures (HUVEC [5]; 1 μM, compared with S1P): less potent than S1P; effect on VEGF-triggered tube formation (HUVEC [5]): inhibited; effect on VEGF-triggered tube formation (HUVEC [5]; listed as sphingosine): inhibits; MAP kinase activation (ERK½ MAP kinases): Neither Compound A nor S are able to induce MAP kinase activation; tissue factor activity (tissue factor): none of these compounds alone or in combinations may elevate tissue factor activity

With pertussis toxin [reference compound] as the molecule, how does the “inhibition of Compound A-phosphate- and S1P-stimulated tube formation” value (HUVEC [5]; PTX 50 ng/ml) read?
The value was “practically completely inhibited”.
